In ChEMBL document CHEMBL4433230, “Revisiting microtubule targeting agents: α-Tubulin and the pironetin binding site as unexplored targets for cancer therapeutics” (Bioorg Med Chem Lett, 2019):

Experiments:
[1] = Toxicity in CDF1-SLC mouse injected with mouse P388 cells assessed as change in body weight at 3.13 mg/kg, ip treated for 5 days and measured on day 1 and 10 (reference value: 5.3g); assay type: organism-based; details: in vivo, 120 h
[2] = system: HL-60; assay: Cytotoxicity against human HL60 cells assessed as reduction in growth after 24 hrs by MTT assay; assay type: functional; details: HL-60, 24 h
[3] = system: P388; assay: Antitumor activity in CDF1-SLC mouse injected with mouse P388 cells assessed as mean survival time at 6.25 mg/kg, ip treated for 5 days (reference value: 11.2 +/- 0.84 days); assay type: functional
[4] = system: EL4; assay: Cytotoxicity against C57BL/6 mouse EL4 cells assessed as reduction in growth after 3 days; assay type: functional; details: C57BL/6, EL4, 72 h
[5] = system: P388; assay: Cytotoxicity against mouse P388 cells assessed as reduction in growth after 24 hrs by MTT assay; assay type: functional; details: P388, 24 h
[6] = Cytotoxicity against rat KNRK cells assessed as reduction in growth; assay type: functional
[7] = system: P388; assay: Antitumor activity in CDF1-SLC mouse injected with mouse P388 cells assessed as mean survival time at 3.13 mg/kg, ip treated for 5 days (reference value: 11.2 +/- 0.84 days); assay type: functional
[8] = system: T98G; assay: Cytotoxicity against human T98G cells assessed as reduction in growth after 4 days by MTS assay; assay type: functional; details: 96 h
[9] = system: P388; assay: Antitumor activity in CDF1-SLC mouse injected with mouse P388 cells assessed as mean survival time at 1.56 mg/kg, ip treated for 5 days (reference value: 11.2 +/- 0.84 days); assay type: functional
[10] = Cytotoxicity against human H69/VDS cells assessed as reduction in growth after 7 days by MTT assay; assay type: functional; details: 168 h
[11] = system: A549; assay: Cytotoxicity against human A549 cells assessed as reduction in growth after 4 days by HCS assay; assay type: functional; details: A549, 96 h
[12] = Cytotoxicity against human H69/Txl cells assessed as reduction in growth after 7 days by MTT assay; assay type: functional; details: 168 h
[13] = Toxicity in CDF1-SLC mouse injected with mouse P388 cells assessed as change in body weight at 6.25 mg/kg, ip treated for 5 days and measured on day 1 and 10 (reference value: 5.3g); assay type: organism-based; details: in vivo, 120 h
[14] = system: HeLa; assay: Cytotoxicity against human HeLa cells assessed as reduction in growth; assay type: functional
[15] = system: Mus musculus; assay: Immunosuppressive activity in […] mouse injected with C57BL/6 mouse EL4 cells assessed as cytotoxic T cells generation by measuring specific lysis level at 5 mg/kg, ip treated for 2 to 15 days and measured on day 16 by gamma scintillation counter method (reference value: 18.6 +/- 4.15%); assay type: functional
[16] = system: K562; assay: Cytotoxicity against human K562 cells assessed as reduction in growth after 4 days by MTT assay; assay type: functional; details: K562, 96 h
[17] = system: K562/Adr; assay: Cytotoxicity against human K562/ADR cells assessed as reduction in growth after 4 days by MTT assay; assay type: functional; details: 96 h
[18] = Toxicity in CDF1-SLC mouse injected with mouse P388 cells assessed as change in body weight at 1.56 mg/kg, ip treated for 5 days and measured on day 1 and 10 (reference value: 5.3g); assay type: organism-based; details: in vivo, 120 h
[19] = system: P388; assay: Antitumor activity in CDF1-SLC mouse injected with mouse P388 cells assessed as mean survival time at 0.78 mg/kg, ip treated for 5 days (reference value: 11.2 +/- 0.84 days); assay type: functional
[20] = system: MCF7; assay: Cytotoxicity against human MCF7 cells assessed as reduction in growth after 3 days by MTT assay; assay type: functional; details: MCF7, 72 h
[21] = system: NCI-H69; assay: Cytotoxicity against human H69 cells assessed as reduction in growth after 7 days by MTT assay; assay type: functional; details: NCI-H69, 168 h
[22] = Cytotoxicity against hamster VCRd5L cells assessed as reduction in growth after 4 days by HCS assay; assay type: functional; details: Cricetulus griseus, 96 h
[23] = system: DC3F; assay: Cytotoxicity against hamster DC-3F cells assessed as reduction in growth after 4 days by HCS assay; assay type: functional; details: Cricetulus griseus, 96 h
[24] = system: MDA-MB-231; assay: Cytotoxicity against human MDA-MB-231 cells assessed as reduction in growth after 4 days by HCS assay; assay type: functional; details: MDA-MB-231, 96 h
[25] = Toxicity in CDF1-SLC mouse injected with mouse P388 cells assessed as change in body weight at 0.78 mg/kg, ip treated for 5 days and measured on day 1 and 10 (reference value: 5.3g); assay type: organism-based; details: in vivo, 120 h

## C/C=C/C[C@H](C)[C@@H](OC)[C@@H](C)[C@H](O)C[C@H]1OC(=O)C=C[C@H]1CC [PIRONETIN]
[1]
  Activity: -0.1 g
[2]
  GI50: 20 nM
[3]
  MST: 14.3 days
[4]
  GI50: 15 nM
[5]
  GI50: 100 nM
[6]
  GI50: 30 nM
[7]
  MST: 13.3 days
[8]
  GI50: 7.5 nM
[9]
  MST: 11.7 days
[10]
  GI50: 20.3 nM
[11]
  GI50: 7.5 nM
[12]
  GI50: 11.5 nM
[13]
  Activity: -2.6 g
[14]
  GI50: 30 nM
[15]
  Activity: 7.4%
[16]
  GI50: 17.3 nM
[17]
  GI50: 16 nM
[18]
  Activity: 0.5 g
[19]
  MST: 11.2 days
[20]
  GI50: 5 nM
[21]
  GI50: 17.5 nM
[22]
  GI50: 31 nM
[23]
  GI50: 9.5 nM
[24]
  GI50: 4.6 nM
[25]
  Activity: 3.7 g
